Laboratory results from article PMC4168026 (BioMed Research International, 2014).
pKd, pKi: −log10 of the molar value. “And” between values parts separate entries of the source, which are not always exact repeats. Equal values may be shown once.

What was measured:
[1] = target: T1, CA I (Homo sapiens, UniProt P00915); test: Fluorescent thermal shift assay (FTSA), CA I; format: binding; details: for pKd: FTSA; for energetic contribution (difference in ΔG of binding), CA I: against compound 2, from FTSA, pH 7.0, 37°C
T1 construct: five isoforms of human recombinant catalytic domains of carbonic anhydrases (CAs); made in house

[2] = target: T2, CA XIII (Homo sapiens, UniProt Q8N1Q1); test: Fluorescent thermal shift assay (FTSA), CA XIII; format: binding; details: for shift of the melting temperature Tm, CA XIII: compound added to 200 μM, pH 7.0
T2 construct: five isoforms of human recombinant catalytic domains of carbonic anhydrases (CAs); made in house

[3] = target: T2, CA XIII; test: Isothermal titration calorimetry (ITC), CA XIII; format: binding
[4] = target: T1, CA I; test: Isothermal titration calorimetry (ITC), CA I; format: binding
[5] = target: T3, CA VII (Homo sapiens, UniProt P43166); test: Fluorescent thermal shift assay (FTSA), CA VII; format: binding; details: for pKd: FTSA
T3 construct: five isoforms of human recombinant catalytic domains of carbonic anhydrases (CAs); made in house

[6] = target: T4, CA XII (Homo sapiens, UniProt O43570); test: Fluorescent thermal shift assay (FTSA), CA XII; format: binding
T4 construct: five isoforms of human recombinant catalytic domains of carbonic anhydrases (CAs); made in house

[7] = target: T4, CA XII; test: Isothermal titration calorimetry (ITC), CA XII; format: binding
[8] = target: T5, CA II (Homo sapiens, UniProt P00918); test: Fluorescent thermal shift assay (FTSA), CA II; format: binding; details: 37°C, pH 7.0, read-out: Dissociation constants Kd, CA II
T5 construct: five isoforms of human recombinant catalytic domains of carbonic anhydrases (CAs); made in house

[9] = target: T3, CA VII; test: Isothermal titration calorimetry (ITC), CA VII; format: binding
[10] = target: T5, CA II; test: Isothermal titration calorimetry (ITC), CA II; format: binding
[11] = target: CA VII; details: read-out: affinity, CA VII; inhibition method, literature value ref 5; cited from earlier work
[12] = 37°C, pH 7.0, read-out: Dissociation constants Kd, CA I
[13] = 37°C, pH 7.0, read-out: Dissociation constants Kd, CA XIII
[14] = ITC, 37°C, pH 7.0, read-out: Dissociation constants Kd, CA I
[15] = 37°C, pH 7.0, read-out: Dissociation constants Kd, CA VII
[16] = 37°C, pH 7.0, read-out: Dissociation constants Kd, CA XII
[17] = ITC, 37°C, pH 7.0, read-out: Dissociation constants Kd, CA XII
[18] = ITC, 37°C, pH 7.0, read-out: Dissociation constants Kd, CA II

T2 sequence (Q8N1Q1 4-261 limits assumed): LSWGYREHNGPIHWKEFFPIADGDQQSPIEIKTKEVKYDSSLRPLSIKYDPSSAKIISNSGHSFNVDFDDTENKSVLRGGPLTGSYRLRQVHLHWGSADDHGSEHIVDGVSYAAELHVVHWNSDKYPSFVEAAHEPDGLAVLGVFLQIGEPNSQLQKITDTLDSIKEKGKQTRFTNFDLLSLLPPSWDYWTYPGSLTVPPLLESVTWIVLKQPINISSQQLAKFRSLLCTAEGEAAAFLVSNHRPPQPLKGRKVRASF
T3 sequence (P43166 5-262 limits assumed): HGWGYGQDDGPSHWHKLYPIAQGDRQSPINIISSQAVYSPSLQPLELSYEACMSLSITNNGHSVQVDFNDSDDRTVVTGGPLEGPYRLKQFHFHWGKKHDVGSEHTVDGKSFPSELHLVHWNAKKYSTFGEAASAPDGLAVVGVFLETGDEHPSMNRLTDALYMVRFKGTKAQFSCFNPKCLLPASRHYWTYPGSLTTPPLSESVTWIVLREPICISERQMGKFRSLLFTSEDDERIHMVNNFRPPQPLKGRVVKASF
T4 sequence (O43570 30-289 limits assumed): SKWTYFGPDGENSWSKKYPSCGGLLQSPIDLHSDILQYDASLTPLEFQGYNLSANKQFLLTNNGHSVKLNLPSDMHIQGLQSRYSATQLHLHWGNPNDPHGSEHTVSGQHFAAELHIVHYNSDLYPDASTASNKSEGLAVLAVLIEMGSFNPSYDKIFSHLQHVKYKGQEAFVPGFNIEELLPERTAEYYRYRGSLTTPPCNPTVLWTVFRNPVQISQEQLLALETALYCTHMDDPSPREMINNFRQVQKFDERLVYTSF
T1 sequence (P00915 4-261 limits assumed): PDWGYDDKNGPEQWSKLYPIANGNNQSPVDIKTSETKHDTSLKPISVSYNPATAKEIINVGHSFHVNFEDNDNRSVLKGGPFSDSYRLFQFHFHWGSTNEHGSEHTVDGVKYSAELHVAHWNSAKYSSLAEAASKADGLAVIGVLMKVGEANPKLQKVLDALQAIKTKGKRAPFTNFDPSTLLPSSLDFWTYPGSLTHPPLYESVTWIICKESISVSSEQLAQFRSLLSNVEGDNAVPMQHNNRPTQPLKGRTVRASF

Row | SMILES | pKd [1, 12] | energetic contribution (difference in ΔG of binding), CA I [1] [kcal/mol] | pKd [2, 13] | shift of the melting temperature Tm, CA XIII [2] | pKd [3, 13] | pKd [4, 14] | pKd [5, 15] | pKd [6, 16] | pKd [7, 17] | pKd [8] | pKd [9, 15] | pKd [10, 18] | also measured
1 | CC#CCN1C(=O)c2ccc(S(N)(=O)=O)cc2S1(=O)=O [Compound 3] | 7.74 | -3.47 | 7.35 | significant | 7.33 | 7.55 | 6.96 | 6.54 | 6.60 | 7.70 | 6.80 | 7.25 | –
2 | NS(=O)(=O)c1ccc2c(c1)S(=O)(=O)NC2=O [Compound 2] | – | – | ~6.70 and 6.70 | – | 6.92 | – | – | 6.66 | – | 6.40 | – | – | pKd [4]: 5.85; pKd [7]: 7.00; pKd [10]: 6.54
3 | NS(=O)(=O)c1ccc2c(c1)S(=O)(=O)N(CCc1ccccc1)C2=O [Compound 4] | – | -5.93 | 8.17 | significant | > 7.70 | > 7.70 | 8.37 | 7.60 | 7.40 | 8.60 | > 7.70 | > 7.70 | pKd ([1]; read-out: affinity (Kd), CA I): 9.48
4 | O=C1NS(=O)(=O)c2ccccc21 [Compound 1, saccharin, reference compound] | < 2.00 | – | 2.70 | – | < 4.00 | < 4.00 | – | – | < 4.00 | – | < 4.00 | – | pKd ([1]; no shift up to 7.5 mM, read-out: Kd, CA I): < 2.00; pKd ([2]; read-out: Kd, CA XIII): 2.70; pKi [11]: 8.00; pKd ([3]; all tested CAs, read-out: Kd, CA XIII): < 4.00; pKd ([4]; ITC, all tested CAs, read-out: Kd, CA I): < 4.00; affinity weaker than the literature value, CA VII ([5]; FTSA Kd against 10 nM of ref 5): 100,000 fold; pKd ([5]; read-out: Kd, CA VII): 3.00; pKd ([6]; read-out: Kd, CA XII): 2.23; pKd ([7]; ITC, all tested CAs, read-out: Kd, CA XII): < 4.00; pKd ([9]; all tested CAs, read-out: Kd, CA VII): < 4.00
